Common to all, as to format: biochemical
The target in one experiment is T1, Aurora-A (h) (Homo sapiens, UniProt O14965).
T1 construct: purchased Upstate Ltd
T1 sequence (O14965 1-403): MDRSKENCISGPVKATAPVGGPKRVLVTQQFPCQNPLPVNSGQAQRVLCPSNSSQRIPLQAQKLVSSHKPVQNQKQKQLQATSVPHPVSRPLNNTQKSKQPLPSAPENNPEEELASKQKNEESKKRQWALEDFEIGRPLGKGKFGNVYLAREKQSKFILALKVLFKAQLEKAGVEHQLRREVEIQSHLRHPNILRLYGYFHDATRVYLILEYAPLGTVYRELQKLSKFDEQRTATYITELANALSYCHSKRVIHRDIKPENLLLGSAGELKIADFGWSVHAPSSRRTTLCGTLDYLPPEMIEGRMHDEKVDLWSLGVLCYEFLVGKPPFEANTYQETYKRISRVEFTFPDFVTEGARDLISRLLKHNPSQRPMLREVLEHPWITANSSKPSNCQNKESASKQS
Put plainly: Aurora-A (h) kinase assay (Upstate, 33P-ATP filtermat). To be noted: 100 uM of inhibitor, ATP 15 uM; for inhibition at 100 µM: read-out: AuroraA (h) % inhibition. As for the experimental part:
(§1) The compounds of the invention prepared in Examples 1-32 were tested for kinase inhibition against a range of common protein kinases. All kinase assays were conducted at Upstate Ltd, Gemini Crescent, Dundee Technology Park, Dundee, DD2 1SW, UK in accordance with its standard protocols as follows:
In a final reaction volume of 25 μl, Aurora-A (h) (5-10 mU) is incubated with 8 mM MOPS pH 7.0, 0.2 mM EDTA, 200 μM LRRASLG (Kemptide), 10 mM MgAcetate and […]-33P-ATP] (specific activity approx. 500 cpm/pmol, concentration as required). The reaction is initiated by the addition of the MgATP mix. After incubation for 40 minutes at room temperature, the reaction is stopped by the addition of 5 μl of a 3% phosphoric acid solution. 10 μl of the reaction is then spotted onto a P30 filtermat and washed three times for 5 minutes in 50 mM phosphoric acid and once in methanol prior to drying and scintillation counting.
(§2) Data for compounds. ATP concentrations are: Arg=45 uM; abl=45 uM; AuroraA=15 uM; Chk1=90 uM; KDR=90 uM; P70S6=15 uM. Figures represent the % inhibition when tested at 100 uM of inhibitor.

The target of a further experiment is T2, CHK1 (h) (Homo sapiens, UniProt O14757).
T2 construct: purchased Upstate Ltd
T2 sequence (O14757 1-476): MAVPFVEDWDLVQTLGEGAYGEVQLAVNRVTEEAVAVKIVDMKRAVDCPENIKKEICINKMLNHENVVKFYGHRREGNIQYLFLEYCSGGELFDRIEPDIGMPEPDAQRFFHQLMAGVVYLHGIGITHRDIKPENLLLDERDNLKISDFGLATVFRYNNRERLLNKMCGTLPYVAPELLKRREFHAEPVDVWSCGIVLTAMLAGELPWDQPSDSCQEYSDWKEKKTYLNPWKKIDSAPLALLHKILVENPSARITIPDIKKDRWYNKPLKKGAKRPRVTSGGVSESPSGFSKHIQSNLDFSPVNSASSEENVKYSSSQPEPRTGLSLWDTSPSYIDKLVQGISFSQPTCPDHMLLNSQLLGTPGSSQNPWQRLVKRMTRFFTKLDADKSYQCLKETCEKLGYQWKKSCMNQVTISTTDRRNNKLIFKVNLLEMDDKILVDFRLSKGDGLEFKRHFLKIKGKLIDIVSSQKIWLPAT
Kind of experiment: CHK1 (h) kinase assay (Upstate, 33P-ATP filtermat). To be noted: 100 uM of inhibitor; ATP 90 uM. The protocol:
as §1
In a final reaction volume of 25 μl, CHK1 (h) (5-10 mU) is incubated with 8 mM MOPS pH 7.0, 0.2 mM EDTA, 200 μM […], 10 mM MgAcetate and […]-33P-ATP] (specific activity approx. 500 cpm/pmol, concentration as required). The reaction is initiated by the addition of the MgATP mix. After incubation for 40 minutes at room temperature, the reaction is stopped by the addition of 5 μl of a 3% phosphoric acid solution. 10 μl of the reaction is then spotted onto a P30 filtermat and washed three times for 5 minutes in 75 mM phosphoric acid and once in methanol prior to drying and scintillation counting.
as §2

The target of a further experiment is T3, Arg (h) (Homo sapiens, UniProt P42684).
T3 construct: purchased Upstate Ltd
Kind of experiment: Arg (h) kinase assay (Upstate, 33P-ATP filtermat). To be noted: 100 uM of inhibitor; ATP 45 uM. The protocol:
as §1
(§3) In a final reaction volume of 25 μl, Arg (h) (5-10 mU) is incubated with 8 mM MOPS pH 7.0, 0.2 mM EDTA, 50 μM EAIYAAPFAKKK, 10 mM MgAcetate and [[…]-33P-ATP] (specific activity approx. 500 cpm/pmol, concentration as required). The reaction is initiated by the addition of the MgATP mix. After incubation for 40 minutes at room temperature, the reaction is stopped by the addition of 5 μl of a 3% phosphoric acid solution. 10 μl of the reaction is then spotted onto a P30 filtermat and washed three times for 5 minutes in 75 mM phosphoric acid and once in methanol prior to drying and scintillation counting.
as §2

A further experiment has as its target T4, p70S6K (h) (Homo sapiens, UniProt P23443).
T4 construct: purchased Upstate Ltd
Kind of experiment: p70S6K (h) kinase assay (Upstate, 33P-ATP filtermat). The settings on record: 100 uM of inhibitor, ATP 15 uM; for inhibition at 100 µM: read-out: P70S6 (h) % inhibition. As for the experimental part: as §1
as §3, with “μl, p70S6K” for “μl, Arg”, “EDTA, 100” for “EDTA, 50”, “μM KKRNRTLTV,” for “μM EAIYAAPFAKKK,”
as §2

A further experiment deals with T5, Abl (h) (Homo sapiens, UniProt P00519).
T5 construct: purchased Upstate Ltd
Put plainly: Abl (h) kinase assay (Upstate, 33P-ATP filtermat). To be noted: 100 uM of inhibitor; ATP 45 uM. The protocol:
as §1
as §3, with “Abl” for “Arg”
as §2

In a further experiment the target is T6, KDR (h) (Homo sapiens, UniProt P35968).
T6 construct: purchased Upstate Ltd
Kind of experiment: KDR (h) kinase assay (Upstate, 33P-ATP filtermat). The settings on record: 100 uM of inhibitor; ATP 90 uM. As for the experimental part: as §1
as §3, with “KDR” for “Arg”, “0.33 mg/ml myelin basic protein,” for “50 μM EAIYAAPFAKKK,”
as §2

T3 sequence (P42684 whole entry): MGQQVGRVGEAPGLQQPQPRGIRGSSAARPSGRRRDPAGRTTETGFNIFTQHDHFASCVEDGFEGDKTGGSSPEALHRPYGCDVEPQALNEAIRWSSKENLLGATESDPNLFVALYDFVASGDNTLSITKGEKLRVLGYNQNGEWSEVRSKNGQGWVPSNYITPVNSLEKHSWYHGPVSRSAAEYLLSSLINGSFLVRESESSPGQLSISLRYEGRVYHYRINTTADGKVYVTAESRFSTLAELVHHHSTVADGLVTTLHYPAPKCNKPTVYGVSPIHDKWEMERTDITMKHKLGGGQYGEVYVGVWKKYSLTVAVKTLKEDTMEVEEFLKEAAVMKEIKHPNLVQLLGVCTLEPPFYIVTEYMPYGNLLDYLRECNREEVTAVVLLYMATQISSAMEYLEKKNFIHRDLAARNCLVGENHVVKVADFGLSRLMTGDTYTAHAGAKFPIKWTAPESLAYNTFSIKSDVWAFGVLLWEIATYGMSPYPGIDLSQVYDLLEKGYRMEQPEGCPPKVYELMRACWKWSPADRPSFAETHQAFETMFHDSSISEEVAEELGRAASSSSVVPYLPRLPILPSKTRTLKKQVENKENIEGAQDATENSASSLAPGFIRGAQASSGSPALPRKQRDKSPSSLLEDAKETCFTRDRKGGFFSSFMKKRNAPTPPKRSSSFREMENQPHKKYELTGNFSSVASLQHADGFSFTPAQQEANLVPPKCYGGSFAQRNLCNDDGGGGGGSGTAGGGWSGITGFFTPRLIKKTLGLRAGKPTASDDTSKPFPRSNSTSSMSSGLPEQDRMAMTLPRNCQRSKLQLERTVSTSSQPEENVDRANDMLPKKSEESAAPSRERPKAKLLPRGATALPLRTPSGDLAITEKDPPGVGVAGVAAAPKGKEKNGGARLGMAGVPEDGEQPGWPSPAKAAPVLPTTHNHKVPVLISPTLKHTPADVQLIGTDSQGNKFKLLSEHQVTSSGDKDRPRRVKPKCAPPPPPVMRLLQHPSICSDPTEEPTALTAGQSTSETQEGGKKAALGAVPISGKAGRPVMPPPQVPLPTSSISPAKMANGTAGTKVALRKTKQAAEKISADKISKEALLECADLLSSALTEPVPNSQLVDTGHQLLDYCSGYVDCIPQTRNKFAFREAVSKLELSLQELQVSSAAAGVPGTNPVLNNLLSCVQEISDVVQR
T4 sequence (P23443 whole entry): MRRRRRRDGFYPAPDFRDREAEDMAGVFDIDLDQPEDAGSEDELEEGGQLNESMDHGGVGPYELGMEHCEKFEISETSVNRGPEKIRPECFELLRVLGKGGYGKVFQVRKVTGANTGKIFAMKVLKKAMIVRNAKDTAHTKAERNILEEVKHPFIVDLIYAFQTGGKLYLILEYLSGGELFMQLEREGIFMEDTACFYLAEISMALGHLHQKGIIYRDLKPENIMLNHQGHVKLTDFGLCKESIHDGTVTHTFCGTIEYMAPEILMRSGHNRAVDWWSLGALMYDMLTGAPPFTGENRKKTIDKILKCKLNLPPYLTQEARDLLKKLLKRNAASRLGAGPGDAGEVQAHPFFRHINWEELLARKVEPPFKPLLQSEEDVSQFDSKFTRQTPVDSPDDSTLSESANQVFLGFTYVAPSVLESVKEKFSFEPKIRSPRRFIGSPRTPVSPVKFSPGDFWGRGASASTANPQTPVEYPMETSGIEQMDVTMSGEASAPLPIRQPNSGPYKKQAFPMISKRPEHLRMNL
T5 sequence (P00519 whole entry): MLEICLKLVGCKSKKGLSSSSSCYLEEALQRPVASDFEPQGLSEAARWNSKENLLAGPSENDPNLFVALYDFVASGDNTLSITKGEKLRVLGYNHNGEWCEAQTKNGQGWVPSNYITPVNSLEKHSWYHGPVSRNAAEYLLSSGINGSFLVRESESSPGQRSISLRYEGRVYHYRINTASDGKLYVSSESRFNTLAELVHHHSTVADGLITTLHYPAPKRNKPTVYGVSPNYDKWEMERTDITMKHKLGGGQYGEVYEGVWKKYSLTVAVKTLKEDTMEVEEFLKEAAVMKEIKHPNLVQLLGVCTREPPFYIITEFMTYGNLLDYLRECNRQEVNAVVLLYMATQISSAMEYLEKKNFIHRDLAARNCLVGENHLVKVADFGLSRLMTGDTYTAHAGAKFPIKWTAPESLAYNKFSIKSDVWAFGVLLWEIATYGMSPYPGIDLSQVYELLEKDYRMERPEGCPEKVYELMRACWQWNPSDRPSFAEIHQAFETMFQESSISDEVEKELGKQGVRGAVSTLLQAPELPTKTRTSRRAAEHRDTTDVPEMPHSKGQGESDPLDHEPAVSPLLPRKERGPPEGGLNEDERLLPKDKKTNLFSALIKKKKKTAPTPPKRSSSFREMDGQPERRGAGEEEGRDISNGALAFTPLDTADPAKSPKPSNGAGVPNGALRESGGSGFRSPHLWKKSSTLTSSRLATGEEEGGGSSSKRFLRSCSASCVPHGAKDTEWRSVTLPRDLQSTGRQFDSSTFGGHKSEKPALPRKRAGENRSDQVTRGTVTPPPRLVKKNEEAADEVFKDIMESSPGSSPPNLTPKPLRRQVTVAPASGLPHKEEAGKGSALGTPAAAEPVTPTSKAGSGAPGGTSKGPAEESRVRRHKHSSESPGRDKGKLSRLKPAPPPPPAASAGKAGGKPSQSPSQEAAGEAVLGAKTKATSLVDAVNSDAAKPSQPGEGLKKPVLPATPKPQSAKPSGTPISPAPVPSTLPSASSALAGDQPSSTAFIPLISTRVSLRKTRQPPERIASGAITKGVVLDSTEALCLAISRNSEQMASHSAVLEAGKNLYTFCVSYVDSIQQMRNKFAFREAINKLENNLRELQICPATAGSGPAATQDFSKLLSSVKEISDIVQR
T6 sequence (P35968 20-1356): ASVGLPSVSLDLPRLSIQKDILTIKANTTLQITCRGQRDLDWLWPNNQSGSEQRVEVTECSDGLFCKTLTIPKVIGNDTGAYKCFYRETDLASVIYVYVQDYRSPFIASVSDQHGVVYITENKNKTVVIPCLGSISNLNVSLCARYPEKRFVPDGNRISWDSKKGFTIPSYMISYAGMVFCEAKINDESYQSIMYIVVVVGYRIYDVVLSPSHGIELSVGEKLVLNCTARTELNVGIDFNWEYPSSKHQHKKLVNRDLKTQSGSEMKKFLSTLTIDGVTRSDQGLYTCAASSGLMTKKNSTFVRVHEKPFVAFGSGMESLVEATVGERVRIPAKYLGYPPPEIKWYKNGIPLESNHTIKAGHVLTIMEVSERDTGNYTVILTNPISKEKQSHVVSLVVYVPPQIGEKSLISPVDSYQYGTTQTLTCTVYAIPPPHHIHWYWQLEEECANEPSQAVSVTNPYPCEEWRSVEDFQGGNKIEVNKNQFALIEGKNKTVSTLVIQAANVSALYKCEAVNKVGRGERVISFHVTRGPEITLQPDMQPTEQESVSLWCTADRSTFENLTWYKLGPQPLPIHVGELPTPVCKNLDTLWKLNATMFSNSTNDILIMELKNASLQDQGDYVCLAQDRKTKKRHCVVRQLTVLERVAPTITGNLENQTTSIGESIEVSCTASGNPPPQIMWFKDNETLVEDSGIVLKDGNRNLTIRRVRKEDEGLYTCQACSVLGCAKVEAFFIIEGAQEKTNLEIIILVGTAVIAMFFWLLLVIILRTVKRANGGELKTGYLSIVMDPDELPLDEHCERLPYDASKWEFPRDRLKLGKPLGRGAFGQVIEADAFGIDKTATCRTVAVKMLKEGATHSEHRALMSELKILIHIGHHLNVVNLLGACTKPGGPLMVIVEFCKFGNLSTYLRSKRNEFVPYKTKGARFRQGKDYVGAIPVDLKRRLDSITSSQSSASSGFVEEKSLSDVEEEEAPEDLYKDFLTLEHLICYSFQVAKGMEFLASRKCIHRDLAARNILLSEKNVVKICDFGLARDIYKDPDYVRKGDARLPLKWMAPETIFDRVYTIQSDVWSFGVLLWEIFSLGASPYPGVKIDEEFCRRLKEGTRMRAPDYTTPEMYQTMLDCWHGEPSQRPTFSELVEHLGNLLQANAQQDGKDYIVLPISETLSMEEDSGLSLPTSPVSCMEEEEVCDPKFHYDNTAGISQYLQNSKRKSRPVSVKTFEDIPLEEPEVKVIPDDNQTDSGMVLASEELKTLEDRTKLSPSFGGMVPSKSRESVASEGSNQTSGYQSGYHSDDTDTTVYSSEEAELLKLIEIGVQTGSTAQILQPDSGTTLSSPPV

As for `c1cncc(Nc2nnc3ccccc3n2)c1` [Example 3, Benzo[1,2,4]triazin-3-yl-pyridin-3-yl-amine], the inhibition at 100 µM at Aurora-A (h) came to 68%; against CHK1 (h), 21%; on Arg (h) it was 71%; on p70S6K (h), 9%; at Abl (h), 65%.
For the molecule `[O-][n+]1nc(Nc2ccc(N3CCNCC3)cc2)nc2ccccc21` [Example 5, (1-Oxy-benzo[1,2,4]triazin-3-yl)-(4-piperazin-1-yl-phenyl)-amine], the “AuroraA (h) % inhibition” value at Aurora-A (h) was 24%. In addition, the “Chk1 (h) % inhibition” value at CHK1 (h) stood at 7%. In addition, the “Arg (h) % inhibition” value on Arg (h) was 78%. For the same molecule, the “Abl (h) % inhibition” value at Abl (h) was determined as 83%.
With `c1ccc2nc(Nc3ccc(N4CCNCC4)cc3)nnc2c1` [Example 6, Benzo[1,2,4]triazin-3-yl-(4-piperazin-1-yl-phenyl)-amine], the inhibition at 100 µM on Aurora-A (h) was 41%; on CHK1 (h), 33%; at Arg (h) it was 92%; against Abl (h), 89%.
In the case of `Nc1nc2ccc(-c3cn[nH]c3)cc2[n+]([O-])n1` [Example 7, 1-Oxy-7-(1H-pyrazol-4-yl)-benzo[1,2,4]triazin-3-ylamine], on Aurora-A (h), the “AuroraA (h) % inhibition” value was 98%. Further, the “KDR (h) % inhibition” value at KDR (h) came out at 98%. Further, the “Chk1 (h) % inhibition” value at CHK1 (h) amounted to 31%. The “Arg (h) % inhibition” value at Arg (h) worked out at 81%. Moreover, the “P70S6 (h) % inhibition” value at p70S6K (h) was 99%. Besides, the “Abl (h) % inhibition” value at Abl (h) is 86%.
Consider `Nc1nnc2cc(-c3cn[nH]c3)ccc2n1` [Example 8, 7-(1H-Pyrazol-4-yl)-benzo[1,2,4]triazin-3-ylamine], for which the inhibition at 100 µM was determined as 100% on Aurora-A (h); 96% against KDR (h); 26% against CHK1 (h); 82% against Arg (h); 97% on p70S6K (h); 87% against Abl (h).
Turning to `Cc1cc(Nc2nnc3ccccc3n2)n[nH]1` [Example 11, Benzo[1,2,4]triazin-3-yl-(5-methyl-1H-pyrazol-3-yl)-amine], the inhibition at 100 µM at Aurora-A (h) worked out at 37%; at CHK1 (h), 32%; on Arg (h), 40%; on Abl (h), 36%.
In the case of `[O-][n+]1nc(Nc2ccc(N3CCNCC3)nc2)nc2ccccc21` [Example 20, (1-Oxy-benzo[1,2,4]triazin-3-yl)-(6-piperazin-1-yl-pyridin-3-yl)-amine], the “AuroraA (h) % inhibition” value on Aurora-A (h) was 52%. Also, the “Chk1 (h) % inhibition” value at CHK1 (h) is reported as 1%. Further, the “Arg (h) % inhibition” value at Arg (h) is listed as 77%. In addition, the “Abl (h) % inhibition” value on Abl (h) is recorded as 72%.
With `Clc1ccc2nnc(Nc3cccnc3)nc2c1` [Example 21, (6-Chloro-benzo[1,2,4]triazin-3-yl)-pyridin-3-yl-amine], the inhibition at 100 µM at Aurora-A (h) amounted to 58%; at Arg (h) it was 84%; at Abl (h), 76%.
In the same order, the values of `c1ccc(-c2ccc3nnc(Nc4cccnc4)nc3c2)cc1` [Example 23, (6-Phenyl-benzo[1,2,4]triazin-3-yl)-pyridin-3-yl-amine] are 68%, 83% and 80%.

As usually defined, the inhibition is how much of the control response was suppressed.
